{
  "source": "patent US4977146A",
  "about": "“2,5-diaryl tetrahydrofurans and analogs thereof as PAF antagonists” (Merck & Co., Inc., priority 1990, dated 1990)",
  "molecular_target": "T1, PAF specific receptor binding site on human platelet membranes (Homo sapiens, UniProt P25105)",
  "T1 construct": "100 μg of the platelet plasma membrane suspension; from tissue; host or cells: human platelets (plasma membranes)",
  "T1 sequence (P25105 whole entry)": "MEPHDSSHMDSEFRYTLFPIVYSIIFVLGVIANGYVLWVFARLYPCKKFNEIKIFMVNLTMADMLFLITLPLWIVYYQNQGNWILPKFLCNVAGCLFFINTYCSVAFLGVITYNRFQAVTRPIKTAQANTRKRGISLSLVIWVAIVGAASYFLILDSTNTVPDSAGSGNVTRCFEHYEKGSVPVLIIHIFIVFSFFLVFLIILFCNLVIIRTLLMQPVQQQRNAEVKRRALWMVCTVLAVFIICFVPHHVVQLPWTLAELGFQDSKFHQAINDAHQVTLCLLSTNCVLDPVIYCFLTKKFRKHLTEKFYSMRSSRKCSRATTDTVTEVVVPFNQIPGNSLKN",
  "assay": "inhibition of the binding of [3H] N-methylcarbamoyl-PAF to human platelet membranes",
  "conditions": "trans configuration, read-out: % inhibitor* (% inhibition of the binding of [3H] N-methylcarbamoyl-PAF to human platelet membranes)",
  "protocol": "The ability of a compound of formula (I) to inhibit the PAF binding to its specific receptor binding site on rabbit or human platelet or PMN plasma membranes was measured by a recently developed assay.\nThe inhibition of ^3 [H] PAF or ^3 [H]N-methylcarbamoyl-PAF binding to the human or rabbit platelet or PMN plasma membrane by a PAF antagonist of formula (I) was determined by a method employing isotopic labeling and filtration techniques. Generally, a series of Tris-buffered solutions of the selected antagonist at predetermined concentrations were prepared. […] Two control samples, one of which (C1) contains all the ingredients described above except the antagonist and the other (C2) contains C1 plus a 1000-fold excess of unlabeled PAF, were also prepared and incubated simultaneously with the test samples. After the incubation was completed, the contents of each test tube were filtered in vacuo through a Whatman GF/C fiberglass filter and the residue washed rapidly several times with a total of 20 ml cold (0°-5° C.) Tris-buffer solution. Each washed residue was then suspended in 10 ml scintillation solution (Aquasol 2, New England Nuclear, Connecticut) and the radioactivity was counted in a Packard Tri-Carb 460CD Liguid Scintillation System.",
  "data": [
    {"smiles": "CCCNCCS(=O)(=O)c1cc([C@@H]2CC[C@@H](c3cc(OC)c(OC)c(OC)c3)O2)cc(OCCC)c1OCCC", "note": "(relative stereo) [trans-2-[3-(2-N-Propylaminoethylsulfonyl)-4,5-dipropoxyphenyl]-5-(3,4,5-trimethoxyphenyl) tetrahydrofuran]", "values": [
      {"measurement": "inhibition", "result": 33, "unit": "%"}
    ]},
    {"smiles": "CCCOc1c(OCCCO)cc([C@@H]2CC[C@@H](c3cc(OC)c(OC)c(OC)c3)O2)cc1S(=O)(=O)CCN(C)C", "note": "(relative stereo) [trans-2-[3-(2-N,N-Dimethylaminoethylsulfonyl)-4-n-propoxy-5-(3-hydroxypropoxy)phenyl]-5-(3,4,5-trimethoxyphenyl)tetrahydrofuran]", "values": [
      {"measurement": "inhibition", "result": 46, "unit": "%"}
    ]},
    {"smiles": "CCCOc1c(OCCCN(C)C)cc([C@@H]2CC[C@@H](c3cc(OC)c(OC)c(OC)c3)O2)cc1S(=O)(=O)CC(C)=O", "note": "(relative stereo) [2-[3-(2-Oxopropylsulfonyl)4-n-propoxy-5-{3-(N,N-dimethylamino)-n-propoxy}phenyl]-5-(3,4,5-trimethoxyphenyl)tetrahydrofuran]", "values": [
      {"measurement": "inhibition", "result": 17, "unit": "%"}
    ]},
    {"smiles": "CCCOc1c(OCCCO)cc([C@@H]2CC[C@@H](c3cc(OC)c(OC)c(OC)c3)O2)cc1S(=O)(=O)CC(C)NC", "note": "(relative stereo) [trans-2-[3-(2-N-Methylaminopropylsulfonyl)-4-n-propoxy-5-(3-hydroxypropoxy)phenyl]-5-(3,4,5-trimethoxyphenyl)tetrahydrofuran]", "values": [
      {"measurement": "inhibition", "result": 38, "unit": "%"}
    ]},
    {"smiles": "CCCOc1c(OCCCO)cc([C@@H]2CC[C@@H](c3cc(OC)c(OC)c(OC)c3)O2)cc1S(=O)(=O)CC(C)N(C)C", "note": "(relative stereo) [trans-2-[3-(2-N,N-dimethylaminopropyl-sulfonyl)-4-n-propoxy-5-(3-hydroxypropoxy)phenyl]5-(3,4,5-trimethoxyphenyl)tetrahydrofuran]", "values": [
      {"measurement": "inhibition", "result": 23, "unit": "%"}
    ]},
    {"smiles": "CCCOc1c(OCC(C)=O)cc([C@H]2CC[C@H](c3cc(OC)c(OC)c(OC)c3)O2)cc1S(=O)(=O)CC(C)O", "note": "(relative stereo) [trans-2-[3-(2-hydroxypropylsulfonyl)-4-n-propoxy-5-(2-oxopropoxy)phenyl]-5-(3,4,5-trimethoxy-phenyl)tetrahydrofuran]", "values": [
      {"measurement": "inhibition", "result": 52, "unit": "%"}
    ]},
    {"smiles": "CCCOc1c(OCC(C)=O)cc([C@@H]2CC[C@@H](c3cc(OC)c(OC)c(OC)c3)O2)cc1S(=O)(=O)CCN(C)C", "note": "(relative stereo) [trans-2-[3-(2-N,N-Dimethylaminoethyl-sulfonyl)-4-n-propoxy-5-(2-oxo-propoxyphenyl]-5-(3,4,5-trimethoxyphenyl)tetrahydrofuran]", "values": [
      {"measurement": "inhibition", "result": 31, "unit": "%"}
    ]},
    {"smiles": "CCCOc1cc([C@H]2CC[C@H](c3cc(OC)c(OC)c(OC)c3)O2)cc(S(=O)(=O)CCN)c1OCCC", "note": "(relative stereo) [trans-2-[3-(2-Aminoethylsulfonyl)-4,5-dipropoxyphenyl]-5-(3,4,5-trimethoxyphenyl)tetrahydrofuran]", "values": [
      {"measurement": "inhibition", "result": 27, "unit": "%"}
    ]},
    {"smiles": "CCCOc1c(OCC(C)=O)cc([C@H]2CC[C@H](c3cc(OC)c(OC)c(OC)c3)O2)cc1S(=O)(=O)CCO", "note": "(relative stereo) [SO2 CH2 CH2OH / CH2 CH2 CH3 / CH2 COCH3, trans-2-[3-(2-Hydroxyethylsulfonyl)-4-n-propoxy-5-(2-oxo-propoxy)phenyl]-5-(3,4,5-trimethoxy-phenyl)tetrahydrofuran]", "values": [
      {"measurement": "inhibition", "result": 33, "unit": "%"}
    ]},
    {"smiles": "CCCOc1c(OCC(C)O)cc([C@@H]2CC[C@@H](c3cc(OC)c(OC)c(OC)c3)O2)cc1S(=O)(=O)CCN(C)C", "note": "(relative stereo) [trans-2-[3-(2-N,N-Dimethylaminoethylsulfonyl)-4-n-propoxy-5-(2-hydroxypropoxy)phenyl]-5-(3,4,5-trimethoxyphenyl)tetrahydrofuran]", "values": [
      {"measurement": "inhibition", "result": 14, "unit": "%"}
    ]},
    {"smiles": "CCCOc1c(OCC(C)=O)cc([C@H]2CC[C@H](c3cc(OC)c(OC)c(OC)c3)O2)cc1S(=O)(=O)CC(C)=O", "note": "(relative stereo) [SO2 CH2 COCH3 / CH2 CH2 CH3 / CH2 COCH3, trans-2-[3-(2-Oxopropyl-sulfonyl)-4-n-propoxy-5-(2-oxopropoxy)phenyl]-5-(3,4,5-trimethoxyphenyl)tetrahydrofuran]", "values": [
      {"measurement": "inhibition", "result": 65, "unit": "%"}
    ]},
    {"smiles": "CCCOc1cc([C@@H]2CC[C@@H](c3cc(OC)c(OC)c(OC)c3)O2)cc(S(=O)(=O)CCNC)c1OCCC", "note": "(relative stereo) [trans-2-[3-(2-N-Methylaminoethylsulfonyl)-4,5-di-n-propoxyphenyl]-5-(3,4,5-trimethoxyphenyl) tetrahydrofuran]", "values": [
      {"measurement": "inhibition", "result": 58, "unit": "%"}
    ]},
    {"smiles": "CCCOc1cc([C@@H]2CC[C@@H](c3cc(OC)c(OC)c(OC)c3)O2)cc(S(=O)(=O)CCNCC)c1OCCC", "note": "(relative stereo) [trans-2-[3-(2-N-Ethylaminoethylsulfonyl)-4,5-dipropoxyphenyl]-5-(3,4,5-trimethoxyphenyl)tetrahydrofuran]", "values": [
      {"measurement": "inhibition", "result": 42, "unit": "%"}
    ]},
    {"smiles": "CCCOc1cc([C@@H]2CC[C@@H](c3cc(OC)c(OC)c(OC)c3)O2)cc(S(=O)(=O)CCN(C)C)c1OCCC", "note": "(relative stereo) [trans-2-[3-(2-N,N-Dimethylaminoethylsulfonyl)-4,5-di-n-propoxyphenyl]-5-(3,4,5-trimethoxyphenyl)tetrayhydrofuran]", "values": [
      {"measurement": "inhibition", "result": 58, "unit": "%"}
    ]},
    {"smiles": "CCCOc1c(OCCCO)cc([C@@H]2CC[C@@H](c3cc(OC)c(OC)c(OC)c3)O2)cc1S(=O)(=O)CC(C)NCC", "note": "(relative stereo) [trans-2-[3-(2-N-Ethylaminopropylsulfonyl)-4-propoxy-5-(3-hydroxypropoxy)phenyl]-5-(3,4,5-trimethoxyphenyl)tetrahydrofuran]", "values": [
      {"measurement": "inhibition", "result": 36, "unit": "%"}
    ]},
    {"smiles": "CCCOc1c(OCCCO)cc([C@H]2CC[C@H](c3cc(OC)c(OC)c(OC)c3)O2)cc1S(=O)(=O)CC(C)O", "note": "(relative stereo) [trans-2-[3-(2-hydroxypropylsulfonyl)-4-n-propoxy-5-(3-hydroxypropoxy)phenyl]-5-(3,4,5-trimethoxyphenyl)tetrahydrofuran]", "values": [
      {"measurement": "inhibition", "result": 26, "unit": "%"}
    ]},
    {"smiles": "CCCOc1c(OCCCO)cc([C@H]2CC[C@H](c3cc(OC)c(OC)c(OC)c3)O2)cc1S(=O)(=O)CC(C)N", "note": "(relative stereo) [trans-2-[3-(2-Aminopropylsulfonyl)-4-n-propoxy-5-(3-hydroxypropoxy)phenyl]5-(3,4,5-trimethoxyphenyl)tetrahydrofuran]", "values": [
      {"measurement": "inhibition", "result": 18, "unit": "%"}
    ]}
  ]
}
